Assay results: US12544382B2, “2, 4, 6-tri-substituted pyrimidine compound as ATR kinase inhibitor” (BEIJING TIDE PHARMACEUTICAL CO., LTD., priority 2019, dated 2026)

Tests used:
ATR kinase = ATR kinase (Homo sapiens (Human), UniProt Q13535); assay: ATR kinase activity assay (time-resolved fluorescence, p53 substrate phosphorylation); format: biochemical
Method: Biotinylated protein derived from p53 (Eurofins, art. No.: 14-952) was phosphorylated with ATR kinase. The amount of phosphorylated protein was determined by time-resolved fluorescence in this assay. The amount of phosphorylated protein was detected by anti-p53-phospho-(serine 15)-K-specific antibody (Cisbio, art. No.: 61GSTDLA) and d2 labeled anti-GST antibody (Cisbio, art. No. 61P08KAE). Before the experiment, the following working solution was prepared as required: 1× reaction buffer (20 mM HEPES PH8.0, 1% glycerol, 0.01% Brij-35), dilution buffer (20 mM HEPES PH8.0, 1% glycerol, 0.01% Brij-35, 5 mM DTT and 1% BSA), stop solution (20 mM HEPES PH8.0, 1% glycerol, 0.01% Brij-35, 250 mM EDTA), detection buffer (50 mM HEPES pH7.0, 150 mM NaCl, 267 mM KF, 0.1% sodium cholate, 0.01% Tween-20, 0.0125% sodium azide). The reagents used above are purchased from Sigma or Invitrogen, except for those where the manufacturer was mentioned.
Operations are as follows:
4× gradient dilution of compound solutions was prepared with 1× reaction buffer to obtain 9 compound solutions of different concentrations, and 2.5 μL 4× gradient dilution of compound solutions was added to a 384-well analysis plate (784075, Greiner). 4× p53 substrate working solution (40 nM) was prepared with 1× reaction buffer, and 2.5 μL 4× p53 substrate working solution was added to the 384-well analysis plate. 4×ATR/ATRIP working solution (12.8 ng/μL) was prepared with dilution buffer, and 2.5 μL 4×pATR/ATRIP working solution was added to the 384-well analysis plate. 4×ATP working solution (2 mM) was prepared with deionized water, 2.5 μL 4×ATP working solution was added to the 384-well analysis plate, and incubated at room temperature in dark for 30 minutes. 5 μL stop solution was added to the 384 analysis plate. Finally, 5 μL test mixture (0.084 ng/μL Anti-phospho-p53(ser15)-K and 5 ng/μL Anti-GST-d2) was added to the 384 well analysis plate, incubated overnight at room temperature, and the fluorescence signal was detected with ENVISION (Perkinelmer) instrument (excitation wavelength: 320 nm, emission wavelength: 665 nm and 615 nm). The inhibition rate in each well was calculated by the fluorescence intensity value of each hole: ER (Emission Ratio)=(Fluorescence intensity at 665 nm/Fluorescence intensity at 615 nm); inhibition rate=(ER positive-ER test compound)/(ER positive-ER negative)×100%, the IC50 value of compounds were calculated by standard parameter fitting software (GraphPad Prism 6.0).

MV4-11 (leukemia) cells = assay: In vitro cell proliferation inhibition assay (CellTiter-Glo), MV4-11; format: cell-based, human; conditions: MV4-11 cells, 120 hours
Method: By detecting the effect of compound on cell activity in vitro in the tumor cell lines TOV21G (ovarian cancer) and MV4-11 (leukemia), the effect of compound inhibiting cell proliferation was studied in this assay.
TOV21G cells and MV4-11 cells were purchased from American Type Culture Collection (ATCC).
MV-4-11 cells were cultured in IMDM medium (containing 20% FBS), each well of a 96-well culture plate was inoculated with about 10000 cells, and treated with different concentrations (0-10 μM) of compounds to be tested in triplex. Blank wells (containing medium only) and control wells (inoculated with cells but not treated with drug) were set. Cells were cultured for 120 hours, 40 μL Cell Titer-Glo solution was added to each well, incubated with shaking for 20 min in the dark, 100 μL solution was transferred from each well to a 96-well white plate, and the luminescence value was read by Biotek Synergy H1 multifunctional microplate reader. Inhibition rate (%)=100%×(control well−test well)/(control well−blank well)

ATR kinase, sequence (Q13535 whole entry): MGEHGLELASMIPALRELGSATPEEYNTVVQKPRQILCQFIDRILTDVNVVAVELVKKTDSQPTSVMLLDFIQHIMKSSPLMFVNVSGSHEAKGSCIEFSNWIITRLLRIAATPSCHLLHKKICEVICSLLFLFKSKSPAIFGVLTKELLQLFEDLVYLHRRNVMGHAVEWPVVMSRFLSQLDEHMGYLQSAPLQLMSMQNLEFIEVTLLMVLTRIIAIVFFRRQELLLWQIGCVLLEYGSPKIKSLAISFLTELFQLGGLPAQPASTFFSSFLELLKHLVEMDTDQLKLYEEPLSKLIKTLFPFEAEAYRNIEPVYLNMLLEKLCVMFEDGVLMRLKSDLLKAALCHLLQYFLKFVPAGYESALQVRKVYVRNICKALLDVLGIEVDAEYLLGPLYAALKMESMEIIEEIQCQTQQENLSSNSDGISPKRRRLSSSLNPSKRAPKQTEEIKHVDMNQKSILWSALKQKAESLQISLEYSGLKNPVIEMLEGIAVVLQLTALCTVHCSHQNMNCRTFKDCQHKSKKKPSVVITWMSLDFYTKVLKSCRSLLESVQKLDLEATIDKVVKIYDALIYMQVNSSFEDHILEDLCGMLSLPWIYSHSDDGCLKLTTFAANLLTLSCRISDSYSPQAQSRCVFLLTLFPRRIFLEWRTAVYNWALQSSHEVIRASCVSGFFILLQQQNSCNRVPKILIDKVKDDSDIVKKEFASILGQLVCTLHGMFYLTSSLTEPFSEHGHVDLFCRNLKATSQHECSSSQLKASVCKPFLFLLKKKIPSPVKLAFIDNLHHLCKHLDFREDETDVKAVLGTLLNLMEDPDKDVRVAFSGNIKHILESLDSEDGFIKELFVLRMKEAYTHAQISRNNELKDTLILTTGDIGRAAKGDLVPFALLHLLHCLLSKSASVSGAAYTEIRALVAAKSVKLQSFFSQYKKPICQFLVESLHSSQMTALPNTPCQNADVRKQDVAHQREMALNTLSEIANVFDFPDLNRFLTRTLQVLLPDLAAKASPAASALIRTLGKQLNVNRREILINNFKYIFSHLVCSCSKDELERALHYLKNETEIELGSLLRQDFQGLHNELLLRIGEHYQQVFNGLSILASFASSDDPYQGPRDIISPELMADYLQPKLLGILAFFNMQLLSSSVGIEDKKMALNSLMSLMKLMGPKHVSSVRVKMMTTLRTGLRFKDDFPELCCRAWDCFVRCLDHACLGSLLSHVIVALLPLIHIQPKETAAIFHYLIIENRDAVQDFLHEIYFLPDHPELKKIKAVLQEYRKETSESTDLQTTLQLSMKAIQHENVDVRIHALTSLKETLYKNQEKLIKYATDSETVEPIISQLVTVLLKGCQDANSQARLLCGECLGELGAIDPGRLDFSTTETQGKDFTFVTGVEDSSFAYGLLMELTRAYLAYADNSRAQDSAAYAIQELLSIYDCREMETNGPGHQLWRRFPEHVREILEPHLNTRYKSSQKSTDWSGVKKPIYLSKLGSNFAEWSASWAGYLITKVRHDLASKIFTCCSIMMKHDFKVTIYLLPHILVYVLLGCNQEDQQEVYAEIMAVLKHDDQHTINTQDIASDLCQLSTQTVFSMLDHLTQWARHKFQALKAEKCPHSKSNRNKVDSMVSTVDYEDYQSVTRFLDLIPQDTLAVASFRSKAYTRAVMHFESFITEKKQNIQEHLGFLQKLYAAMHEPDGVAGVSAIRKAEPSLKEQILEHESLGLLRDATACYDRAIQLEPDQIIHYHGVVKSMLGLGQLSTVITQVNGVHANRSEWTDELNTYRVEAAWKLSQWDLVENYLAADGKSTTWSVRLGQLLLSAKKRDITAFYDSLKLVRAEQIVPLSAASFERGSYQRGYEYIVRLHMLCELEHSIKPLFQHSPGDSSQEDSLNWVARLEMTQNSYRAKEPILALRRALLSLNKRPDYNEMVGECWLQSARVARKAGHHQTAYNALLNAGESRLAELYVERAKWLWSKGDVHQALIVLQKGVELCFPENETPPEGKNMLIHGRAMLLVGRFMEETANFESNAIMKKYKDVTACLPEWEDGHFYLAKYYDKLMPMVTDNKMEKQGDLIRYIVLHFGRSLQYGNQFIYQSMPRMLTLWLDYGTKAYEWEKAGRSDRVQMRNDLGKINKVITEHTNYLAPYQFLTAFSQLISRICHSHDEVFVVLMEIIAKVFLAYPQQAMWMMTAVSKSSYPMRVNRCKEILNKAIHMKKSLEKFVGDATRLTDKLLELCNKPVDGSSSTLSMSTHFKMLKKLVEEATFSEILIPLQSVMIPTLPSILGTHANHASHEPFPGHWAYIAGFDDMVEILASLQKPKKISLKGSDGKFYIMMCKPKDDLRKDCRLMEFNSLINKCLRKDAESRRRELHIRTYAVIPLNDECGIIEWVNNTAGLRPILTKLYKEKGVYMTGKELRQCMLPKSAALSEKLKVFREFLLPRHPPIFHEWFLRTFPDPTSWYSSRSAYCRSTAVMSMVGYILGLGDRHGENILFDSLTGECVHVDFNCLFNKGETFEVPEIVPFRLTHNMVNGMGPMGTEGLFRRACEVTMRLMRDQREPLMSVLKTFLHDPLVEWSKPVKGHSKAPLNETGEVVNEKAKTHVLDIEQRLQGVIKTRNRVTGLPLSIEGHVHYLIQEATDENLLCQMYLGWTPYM
ATR kinase, sequence (Q8WXE1 whole entry partner): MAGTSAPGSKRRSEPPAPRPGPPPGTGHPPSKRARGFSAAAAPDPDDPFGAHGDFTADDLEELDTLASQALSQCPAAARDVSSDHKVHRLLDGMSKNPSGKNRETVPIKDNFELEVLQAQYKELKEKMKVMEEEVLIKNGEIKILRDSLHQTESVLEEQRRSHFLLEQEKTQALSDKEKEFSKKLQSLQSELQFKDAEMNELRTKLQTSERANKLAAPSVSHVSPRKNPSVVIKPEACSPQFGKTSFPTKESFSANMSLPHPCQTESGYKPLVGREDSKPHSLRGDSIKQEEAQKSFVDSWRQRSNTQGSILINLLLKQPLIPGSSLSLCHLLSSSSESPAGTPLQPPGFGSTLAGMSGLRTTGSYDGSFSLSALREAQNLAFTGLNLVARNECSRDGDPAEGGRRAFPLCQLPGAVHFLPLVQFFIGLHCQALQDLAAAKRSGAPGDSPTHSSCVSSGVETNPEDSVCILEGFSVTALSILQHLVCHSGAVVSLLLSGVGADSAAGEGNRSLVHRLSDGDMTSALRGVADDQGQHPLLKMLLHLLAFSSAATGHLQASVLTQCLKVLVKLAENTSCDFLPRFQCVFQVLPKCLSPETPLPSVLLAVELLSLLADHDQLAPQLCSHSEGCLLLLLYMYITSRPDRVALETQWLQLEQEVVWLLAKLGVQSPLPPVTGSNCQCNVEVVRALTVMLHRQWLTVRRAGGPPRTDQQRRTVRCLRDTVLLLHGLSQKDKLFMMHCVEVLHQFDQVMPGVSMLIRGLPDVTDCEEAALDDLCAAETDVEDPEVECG

Row | SMILES | IC50 (ATR kinase) [µM] | IC50 (MV4-11 (leukemia) cells) [µM]
1 | C[C@@H]1COCCN1c1cc(-c2cccc(S(C)(=O)=O)c2)nc(-c2ccnc3[nH]ccc23)n1 [Compound A4] | 0.179 | –
2 | C[C@@H]1COCCN1c1cc(-c2ccc(S(C)(=O)=O)cc2)nc(-c2ccnc3[nH]ccc23)n1 [Compound A5] | > 10 | –
3 | Cc1c(-c2cc(N3CCOC[C@H]3C)nc(-c3ccnc4[nH]ccc34)n2)c(C(F)(F)F)nn1C [Compound A8] | 0.021 | –
4 | Cc1ccc(S(C)(=O)=O)cc1-c1cc(N2CCOC[C@H]2C)nc(-c2ccnc3[nH]ccc23)n1 [Compound A9] | 0.031 | –
5 | Cc1ccc(S(=O)(=O)N(C)C)cc1-c1cc(N2CCOC[C@H]2C)nc(-c2ccnc3[nH]ccc23)n1 [Compound A10] | 0.025 | –
6 | Cc1nn(CCCO)c(C)c1-c1cc(N2CCOC[C@H]2C)nc(-c2ccnc3[nH]ccc23)n1 [Compound A11] | 0.015 | –
7 | Cc1nn(CC(C)(C)O)c(C)c1-c1cc(N2CCOC[C@H]2C)nc(-c2ccnc3[nH]ccc23)n1 [Compound A12] | 0.044 | –
8 | COc1ccc(S(=O)(=O)C(C)C)cc1-c1cc(N2CCOC[C@H]2C)nc(-c2ccnc3[nH]ccc23)n1 [Compound A13] | 0.066 | –
9 | COCCn1nc(C)c(-c2cc(N3CCOC[C@H]3C)nc(-c3ccnc4[nH]ccc34)n2)c1C [Compound A14] | 0.571 | –
10 | Cc1nn(C(C)C)c(C)c1-c1cc(N2CCOC[C@H]2C)nc(-c2ccnc3[nH]ccc23)n1 [Compound A15] | 0.021 | –
11 | Cc1nn(C2CCNCC2)c(C)c1-c1cc(N2CCOC[C@H]2C)nc(-c2ccnc3[nH]ccc23)n1 [Compound A16] | 0.004 | –
12 | C[C@@H]1COCCN1c1cc(-c2ccnn2C2CCCCC2)nc(-c2ccnc3[nH]ccc23)n1 [Compound A17] | 2.27 | –
13 | Cc1nn(CC2CNC2)c(C)c1-c1cc(N2CCOC[C@H]2C)nc(-c2ccnc3[nH]ccc23)n1 [Compound A18] | 0.047 | –
14 | Cc1nn(CC2COC2)c(C)c1-c1cc(N2CCOC[C@H]2C)nc(-c2ccnc3[nH]ccc23)n1 [Compound A19] | 0.018 | –
15 | CCN1CCC(n2nc(C)c(-c3cc(N4CCOC[C@H]4C)nc(-c4ccnc5[nH]ccc45)n3)c2C)CC1 [Compound A20] | 0.098 | –
16 | Cc1nn(CCN(C)C)c(C)c1-c1cc(N2CCOC[C@H]2C)nc(-c2ccnc3[nH]ccc23)n1 [Compound A21] | 0.056 | –
17 | Cc1nn(CCCN(C)C)c(C)c1-c1cc(N2CCOC[C@H]2C)nc(-c2ccnc3[nH]ccc23)n1 [Compound A22] | 0.081 | –

Row | SMILES | IC50 (ATR kinase) [µM] | IC50 (MV4-11 (leukemia) cells) [µM]
18 | Cc1nn(C2CCN(S(C)(=O)=O)C2)c(C)c1-c1cc(N2CCOC[C@H]2C)nc(-c2ccnc3[nH]ccc23)n1 (some centres unmarked) [Compound A23] | 0.014 | –
19 | Cc1nn(C2CCOCC2)c(C)c1-c1cc(N2CCOC[C@H]2C)nc(-c2ccnc3[nH]ccc23)n1 [Compound A24] | 0.057 | –
20 | CCNC(=O)Nc1ccc(-c2nc(-c3c(C)nn(C)c3C)cc(N3CCOC[C@H]3C)n2)cc1 [Compound A26] | 2.17 | –
21 | Cc1nn(CC2CCOC2)c(C)c1-c1cc(N2CCOC[C@H]2C)nc(-c2ccnc3[nH]ccc23)n1 (some centres unmarked) [Compound A28] | 0.025 | –
22 | CC(C)S(=O)(=O)c1ccc(C(F)(F)F)c(-c2cc(N3CCOC[C@H]3C)nc(-c3ccnc4[nH]ccc34)n2)c1 [Compound A29] | 0.631 | –
23 | CCN(C)S(=O)(=O)c1ccc(OC)c(-c2cc(N3CCOC[C@H]3C)nc(-c3ccnc4[nH]ccc34)n2)c1 [Compound A30] | 0.11 | –
24 | CCN1CCC(n2nc(C)c(-c3cc(N4CCOC[C@H]4C)nc(-c4ccnc5[nH]ccc45)n3)c2C)C1 (some centres unmarked) [Compound A31] | 0.048 | –
25 | Cc1nn(C2CCCN(C)C2)c(C)c1-c1cc(N2CCOC[C@H]2C)nc(-c2ccnc3[nH]ccc23)n1 (some centres unmarked) [Compound A32] | 0.027 | –
26 | CCN(C)S(=O)(=O)c1ccc(C(C)C)c(-c2cc(N3CCOC[C@H]3C)nc(-c3ccnc4[nH]ccc34)n2)c1 [Compound A33] | 0.936 | –
27 | Cc1ccc(S(=O)(=O)N(C)CCN(C)C)cc1-c1cc(N2CCOC[C@H]2C)nc(-c2ccnc3[nH]ccc23)n1 [Compound A34] | 0.282 | –
28 | CCN1CCN(S(=O)(=O)c2ccc(C)c(-c3cc(N4CCOC[C@H]4C)nc(-c4ccnc5[nH]ccc45)n3)c2)CC1 [Compound A35] | 0.063 | –
29 | Cc1ccc(S(=O)(=O)C2CCN(C)CC2)cc1-c1cc(N2CCOC[C@H]2C)nc(-c2ccnc3[nH]ccc23)n1 [Compound A36] | 0.091 | –
30 | Cc1nn(C2CCN(C)CC2)c(C)c1-c1cc(N2CCOC[C@H]2C)nc(-c2ccnc3[nH]ccc23)n1 [Compound A37] | 0.037 | –
31 | Cc1nn(CC2CCCN(C)C2)c(C)c1-c1cc(N2CCOC[C@H]2C)nc(-c2ccnc3[nH]ccc23)n1 (some centres unmarked) [Compound A38] | 0.03 | –
32 | Cc1ccc(S(=O)(=O)C(C)C)cc1-c1cc(N2CCOC[C@H]2C)nc(-c2ccnc3[nH]ccc23)n1 [Compound A39] | 0.121 | –
33 | Cc1ccc(S(=O)(=O)NCCCO)cc1-c1cc(N2CCOC[C@H]2C)nc(-c2ccnc3[nH]ccc23)n1 [Compound A40] | 0.05 | –
34 | Cc1nn(CS(C)(=O)=O)c(C)c1-c1cc(N2CCOC[C@H]2C)nc(-c2ccnc3[nH]ccc23)n1 [Compound A41] | 0.011 | –

Continued, values first:

Row | IC50 (ATR kinase) [µM] | IC50 (MV4-11 (leukemia) cells) [µM] | SMILES
35 | 0.255 | – | Cc1nn(C)c(C)c1-c1nc(-c2ccnc3[nH]ccc23)cc(N2CCOC[C@H]2C)n1 [Compound B1]
36 | 4.3 | – | C[C@@H]1COCCN1c1cc(-c2ccnc3[nH]ccc23)nc(-c2cccc(S(C)(=O)=O)c2)n1 [Compound B2]
37 | > 10 | – | C[C@@H]1COCCN1c1cc(-c2ccnc3[nH]ccc23)nc(-c2ccc(S(C)(=O)=O)cc2)n1 [Compound B3]
38 | 1.72 | – | Cc1c(-c2nc(-c3ccnc4[nH]ccc34)cc(N3CCOC[C@H]3C)n2)cnn1C [Compound B4]
39 | 1.61 | – | Cc1nn(C)cc1-c1nc(-c2ccnc3[nH]ccc23)cc(N2CCOC[C@H]2C)n1 [Compound B5]
40 | 0.979 | – | Cc1nn(C(C)C)c(C)c1-c1nc(-c2ccnc3[nH]ccc23)cc(N2CCOC[C@H]2C)n1 [Compound B6]
41 | 0.34 | – | Cc1nn(CC2CNC2)c(C)c1-c1nc(-c2ccnc3[nH]ccc23)cc(N2CCOC[C@H]2C)n1 [Compound B7]
42 | > 10 | – | Cc1nn(C)c(C)c1-c1nc(-c2ccnc(C(F)F)c2)cc(N2CCOC[C@H]2C)n1 [Compound B8]
43 | 0.041 | – | Cc1nn(C)c(C)c1-c1nc(-c2ccnc3[nH]ccc23)nc(N2CCOC[C@H]2C)n1 [Compound C1]
44 | 0.108 | – | Cc1c(-c2cc(N3CCOC[C@H]3C)nc(-c3ccc(C#N)c4[nH]ccc34)n2)c(C(F)(F)F)nn1C1CCNCC1 [Compound D5]
45 | 2.7 | – | CSc1nc2cc(F)ccc2n1-c1nc(-c2c(C)nn(C3CCNCC3)c2C(F)(F)F)cc(N2CCOC[C@H]2C)n1 [Compound D31]
46 | 1.77 | – | Cc1nn(C2CCNCC2)c(C(F)(F)F)c1-c1cc(N2CCOC[C@H]2C)nc(-n2c(CO)nc3cc(F)ccc32)n1 [Compound D32]
47 | 0.073 | – | CNc1nc2ccc(F)cc2n1-c1nc(-c2c(C(F)(F)F)nn(C3CCCNC3)c2C)cc(N2CCOC[C@@H]2C)n1 (some centres unmarked) [Compound D34]
48 | 0.071 | – | CCNC(=O)Nc1nc2ccccc2n1-c1nc(-c2c(C)nn(C3CCNCC3)c2C(F)(F)F)cc(N2CCOC[C@@H]2C)n1 [Compound D37]
49 | 0.003 | 0.81 | Cc1c(-c2cc(N3CCOC[C@H]3C)nc(-c3cc(F)cc4[nH]ccc34)n2)c(C(F)(F)F)nn1C1CC2(CNC2)C1 [Compound D50]
